Results on eight molecules are retold here after patent US12290533B2, “Extracellular vesicles and methods of using” (NUtech Ventures, priority 2018, dated 2025).

Entries after “also recorded” stand apart in the source; their conditions may differ.

Series [1] in a line: Bioavailability and distribution of fluorophore-labeled RNA and microRNA cargos in bovine milk exosomes. The series is classed as in vivo, Balb/c mice. The note with it: for tissue distribution of fluorophore-labeled microRNA transfected into milk exosomes: oral gavage, 6 hours. How it is done: Exosomes were isolated from bovine milk using ultracentrifugation.
Labeling of exosomes and RNAs with synthetic fluorophores. […] All exosome preparations were utilized within 2 hours.

For series [2], the system named is human umbilical vein endothelial cells (HUVEC). The experiment in a line: Uptake of fluorophore-labeled cow's milk exosomes into HUVECs. The series is classed as cell-based.
In series [3] the test system is human colon carcinoma Caco-2 cells. Description: Uptake of FM 4-64-labeled bovine milk exosomes into Caco-2 cells. The settings on record: for effect on exosome transport: milk exosomes treated with protease. (Caco-2 monolayers are a common model of the intestinal barrier.)
Protocol: Exosomes were isolated from bovine milk by differential centrifugation and authenticated as recommended by International Society for Extracellular Vesicles. […] Controls were incubated with solvent. Exosomes were labeled with FM4-64, and unlabeled fluorophore was removed. […] Transport kinetics were modelled using the Michaelis-Menten equation. One-way ANOVA and Bonferroni's multiple comparison were used for statistical analyses.
Caco-2 cells and IEC-6 cells were seeded at a density of 20,000 and 7000 cells/well, respectively, in 96-well plates, and allowed to adhere for 48 h, when cells were 75% confluent. The exosomes were labeled with the fluorophore, FM 4-64 (Molecular Probes). One microliter of a stock solution of FM 4-64 (5.9 mmol/L) was added to 1 mL of exosome suspension and incubated for 15 min at 37° C., and excess FM 4-64 was removed by ultracentrifugation at 120,000 3 g at 4° C. for 90 min. Transport studies were conducted using FM4-64-labeled exosomes using 3-110 mg of exosomal protein/well (Caco-2 cells) or 27-652 mg of exosomal protein/well (IEC-6 cells) and incubating cells for various periods of time to assess saturation kinetics; blanks were created using solvent. Assays were calibrated by quantifying the fluorescence of a known mass of exosomes labeled with FM 4-64. Exosome uptake was analyzed by measuring the cell fluorescence at 515 (excitation) and 640 nm (emission) using a Biotek FLx800 plate reader (BioTek Instru-ments). Fluorescence readings were corrected for cell autofluorescence by subtracting signals measured in cells incubated with exosome-depleted media. Transport kinetics was modeled using the Michaelis-Menten equation and nonlinear regression; modeling was conducted using GraphPad Prism 6.0 (GraphPad Software). […] Subsequent transport studies were conducted using incubation times of 8 hours for Caco-2 cells (FIG. 34B).
Transport kinetics was modeled using the Michaelis-Menten equation.
In series [4] the test system is rat small intestinal IEC-6 cells. Description: Uptake of FM 4-64-labeled bovine milk exosomes into IEC-6 cells. The format is cell-based. The note with it: exosomes treated with 0.105 mMol/L trypsin for 30 mins.
For series [5] the following is noted: mouse, in vivo.
Protocol: Exosomes were isolated from bovine milk using ultracentrifugation. Exosome membranes were labeled using the fluorophore, DiR, as described elsewhere herein. […] Identity, integrity, fine dispersion, and count of exosomes were assessed using transmission electron microscopy, western blots, and nanoparticle tracker (not shown). Exosomes were administered orally by gavage (1×10^12 exosomes/g) in BALB/c mice. Absorption and distribution of exosomes and their cargos was monitored at timed intervals for up to 24 h using an iBox® Small Animal Imaging system and LiCor Odyssey CLx. At timed intervals, mice were euthanized and various tissues were excised and collected for densitometry analysis using VisionWorks®LS and Image Studio software.
Studies were conducted in female Balb/c mice (Jackson Laboratory, stock number 000651), ages 8 to 20 weeks, unless noted otherwise.
Exosomes were labeled with the lipophilic fluorophore 1,1-dioctadecyl-3,3,3,3-tetrametylindotricarbocyanine iodide (DiR) as described elsewhere (see, e.g., Wiklander et al., J. Extracell. Vesicles 4:26316 (2015)). […] Free dyes and extra-exosomal synthetic microRNAs were removed by two PBS washes (120,000×g for 60 minutes), and 1×10^12 exosomes were administered per g body weight in a volume of less than 150 μl. […] All exosome preparations were utilized within 2 hours.
Series [6] is described as follows: Bovine milk exosomes and miRNAs in embryos and placentas of pregnant mice at E16.5. The series is classed as in vivo. The source says:
The bioavailability of bovine milk exosomes and miRNAs in fetal circulation of pregnant mice was examined. DiR-labelled bovine milk exosomes (or unlabeled control bovine milk exosomes) were adminstered to pregnant mice at embryonic day 16.5 (E16.5) to embryos and placentas. […] Three independent experiments per each treatment and control.

For the molecule “MiR-34a: synthetic IRDye-labeled microRNA transfected into bovine milk exosomes; uggcagugucuuagcugguugu, SEQ ID NO: 8 (UGGCAGUGUCUUAGCUGGUUGU; IRDye fluorophore label, position not given here, synthetic)”, the “tissue distribution of fluorophore-labeled microRNA transfected into milk exosomes” value in series [1] was “brain”.

With `C=C1[C@@H](C)[C@H]2[C@H](Cc3ccccc3)NC(=O)[C@]23[C@H](OC(C)=O)/C=C/[C@@](C)(O)C(=O)[C@@H](C)C/C=C/[C@H]3[C@@H]1O` [cytochalasin D], the “decrease of transport rates compared with controls” value in series [2] (exosomes treated with proteinase K, or transport in presence of D-galactose, excess unlabeled exosomes or cytochalasin D) was 50%.

Regarding trypsin, the “transport rates (Vmax)” value in series [3] (exosomes treated with protease, control 88±1, cell type not named at the place) is listed as 40±0.6 arbitrary units. In addition, the “effect on exosome transport” value in series [3] is given as “significant decrease in exosome transport into CaCo-2 cells”. The same molecule showed an exosome uptake in series [4] of 82%+8%. Also, the “tissue accumulation of exosomes depleted of surface proteins” value in series [5] was “reduced accumulation of exosomes in the liver and lungs after intravenous injection”.

For `O=C[C@H](O)[C@@H](O)[C@@H](O)[C@H](O)CO` [D-galactose], the “effect of carbohydrate competitor on exosome uptake” value in series [2] (150 mmol/L, pretreated 30 min) is reported as “caused a significant decrease in exosome uptake”.

Take “miR-30d: microRNA loaded into bovine milk exosomes; uguaaacauccccgacuggaagcu, SEQ ID NO: 13 (UGUAAACAUCCCCGACUGGAAGCU; listed as RNA, further chemistry not given here)”: in series [6], the “presence in embryo and placenta” value is “present in both embryo and placenta”.

With “miR-320a: synthetic IRDye-labeled microRNA transfected into bovine milk exosomes; aaaagcuggguugagagggcga, SEQ ID NO: 10 (AAAAGCUGGGUUGAGAGGGCGA; IRDye fluorophore label, position not given here, synthetic)”, in series [1] (3 hours after intravenous injection), the “tissue distribution of IRDye-labeled microRNA transfected into milk exosomes” value was “accumulated primarily in liver with small amounts being detectable in kidneys, lungs and spleen 3 hours after intravenous injection”. Besides, the apparent bioavailability in series [1] (hepatic densitometry 3 hours after intravenous injection vs 6 hours after oral gavage) was determined as 25.4±8.7%. Also, the “tissue distribution of fluorophore-labeled microRNA transfected into milk exosomes” value in series [1] is “accumulated primarily in liver, spleen and kidneys 6 hours after oral gavage”.

As to “miR-375: synthetic 5ATT0633N-labeled microRNA, with or without quencher 3IAbRQSp, transfected into milk exosomes; uuuuguucguucggcucgcguga, SEQ ID NO: 11 (UUUUGUUCGUUCGGCUCGCGUGA; listed as RNA, further chemistry not given here)”, in series [1] (administered orally, signal indicates degradation), the “signal of microRNA conjugated to fluorophore and quencher” value is “only a minimal signal was detected in heart and spleen”. In addition, in series [1], the “tissue distribution of fluorophore-labeled microRNA transfected into milk exosomes” value is “the signal localized primarily to the intestines, with minor signal being detectable in kidneys, brain and liver; also recorded: accumulated in brain, liver, kidneys and intestinal mucosa in mice”.

On to “Glu-C: serine protease cleaving at glutamic acid and aspartic acid residues”, for which the “effect on exosome transport” value in series [3] was “significant decrease in exosome transport into CaCo-2 cells”.
